PubChem BioAssay (NCI)
Where “and” joins values, the source holds several entries; their conditions need not be identical. Equal entries are not always repeated.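 The compound was tested at five concentrations on cells cultured in 96-well plates, with a 48-hour exposure period. Abbreviation: GI50, concentration required for 50% inhibition of growth. Definition used: TGI = concentration required for complete inhibition of growth.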

Columns and labels:
Assay in all cases: growth of human tumour cells (NCI), 48 h
NCI-H23 lung = system: NCI-H23 lung
HOP-62 NSCLC = system: HOP-62 NSCLC
SN12C renal = system: SN12C renal
MDA-MB-435 = system: MDA-MB-435
EKVX NSCLC = system: EKVX NSCLC
A549 NSCLC = system: A549 NSCLC
UACC-62 melanoma = system: UACC-62 melanoma
OVCAR-5 ovarian = system: OVCAR-5 ovarian
OVCAR-8 ovarian = system: OVCAR-8 ovarian
HCC-2998 colon = system: HCC-2998 colon

Structure (SMILES)	GI50 (NCI-H23 lung)	TGI (NCI-H23 lung)	GI50 (HOP-62 NSCLC)	TGI (HOP-62 NSCLC)	GI50 (SN12C renal)	TGI (SN12C renal)	GI50 (MDA-MB-435)	TGI (MDA-MB-435)	GI50 (EKVX NSCLC)	TGI (EKVX NSCLC)	GI50 (A549 NSCLC)	TGI (A549 NSCLC)	GI50 (UACC-62 melanoma)	TGI (UACC-62 melanoma)	GI50 (OVCAR-5 ovarian)	TGI (OVCAR-5 ovarian)	GI50 (OVCAR-8 ovarian)	TGI (OVCAR-8 ovarian)	GI50 (HCC-2998 colon)	TGI (HCC-2998 colon)
CC(C)c1ccc2c(N=Nc3ccc(S(N)(=O)=O)cc3)c(O)[nH]c2c1	11.1 µM	> 25 µM	5.54 µM	12.6 µM	> 14.8 µM	> 25 µM	> 23.2 µM	> 25 µM	> 16.6 µM	> 25 µM	> 14.8 µM	> 25 µM	> 25 µM	> 25 µM	> 25 µM	> 25 µM	10.3 µM	> 20.1 µM	> 21.1 µM	> 25 µM
CCc1ccc(CCC(=O)Nc2ncc(Cc3cc(Cl)ccc3Cl)s2)o1	2.49 µM	> 50 µM	2.01 µM	16.9 µM	1.93 µM	36.9 µM	0.15 µM	0.486 µM	2.32 µM	> 50 µM	2.14 µM	> 50 µM	1.49 µM	> 50 µM	2.21 µM	> 50 µM	2.25 µM	> 50 µM	2.99 µM	> 50 µM
CC1(C)CC(=O)C2=C(C1)NC(SSC1=C(C#N)C(c3ccc(Br)cc3)C3=C(CC(C)(C)CC3=O)N1)=C(C#N)C2c1ccc(Br)cc1 (stereo not given)	> 150 µg/mL	> 100 µM and 150 µg/mL	> 150 µg/mL	> 100 µM and 150 µg/mL	71.2 µg/mL	> 100 µM and 150 µg/mL	90.8 µg/mL	> 100 µM and 150 µg/mL	> 150 µg/mL	> 100 µM and 150 µg/mL	> 150 µg/mL	> 100 µM and 150 µg/mL	122 µg/mL	> 100 µM and 150 µg/mL	> 150 µg/mL	> 100 µM and 150 µg/mL	48.6 µg/mL	> 100 µM and 150 µg/mL	> 150 µg/mL	150 µg/mL
CN(C)CCCNC(=O)c1cc(NC(=O)CCNC(=O)c2ccc3c(c2)C(=O)c2ccccc2C3=O)cn1C	> 100 µM	> 100 µM	> 100 µM	> 100 µM	> 100 µM	> 100 µM	> 100 µM	> 100 µM	> 100 µM	> 100 µM	> 100 µM	> 100 µM	> 100 µM	> 100 µM	> 100 µM	> 100 µM	> 100 µM	> 100 µM	52.7 µM	> 100 µM
C[As](C)Sc1ccnc(S[As](C)C)n1	6.79 µM	> 32 µM	19 µM	> 46.3 µM	3.41 µM	15.8 µM	1.8 µM	> 27.9 µM	11.2 µM	35.8 µM	8.51 µM	> 41.7 µM	2.38 µM	15.6 µM	19.6 µM	> 48.4 µM	5.51 µM	> 40.1 µM	3.02 µM	10.5 µM
O=C(CCCCCCC(=O)N/N=C/c1ccc(N(c2ccccc2)c2ccccc2)cc1)NO	2.41 µM	10.7 µM	2.21 µM	10.2 µM	2.94 µM	13.5 µM	3.16 µM	18.5 µM	3.82 µM	15.2 µM	2.99 µM	9.51 µM	0.445 µM	1.98 µM	0.417 µM	2.94 µM	3.02 µM	20.8 µM	2.87 µM	11.2 µM
